# Reference: ChEMBL document CHEMBL4177539, “Discovery of N-((3R,4R)-4-Fluoro-1-(6-((3-methoxy-1-methyl-1H-pyrazol-4-yl)amino)-9-methyl-9H-purin-2-yl)pyrrolidine-3-yl)acrylamide (PF-06747775) through Structure-Based Drug Design: A High Affinity Irreversible Inhibitor Targeting Oncogenic EGFR Mutants with Selectivity over Wild-Type EGFR” (J Med Chem, 2017)
# pIC50: −log10 of the molar value.
# Columns and labels:
# [1] = target: Epidermal growth factor receptor (Homo sapiens, UniProt P00533, EX19DEL/T790M)
# [2] = species: Homo sapiens; assay: Selectivity index, ratio of IC50 for wild-type EGFR autophosphorylation in human A549 cells to IC50 for EGFR T790M/L858R double mutant autophosphorylation in human H1975 cells; format: cell-based
# [3] = physchem; settings: octanol/water
# [4] = target: Epidermal growth factor receptor (Homo sapiens, UniProt P00533, EX19DEL)
# [5] = target: Epidermal growth factor receptor (Homo sapiens, UniProt P00533)
# [6] = in vitro; settings: human, liver microsomes
# [7] = in vitro; settings: dog, MDCK
# Chain of Epidermal growth factor receptor (Homo sapiens, UniProt P00533, EX19DEL) (P00533 whole entry, looked up, stated change not applied): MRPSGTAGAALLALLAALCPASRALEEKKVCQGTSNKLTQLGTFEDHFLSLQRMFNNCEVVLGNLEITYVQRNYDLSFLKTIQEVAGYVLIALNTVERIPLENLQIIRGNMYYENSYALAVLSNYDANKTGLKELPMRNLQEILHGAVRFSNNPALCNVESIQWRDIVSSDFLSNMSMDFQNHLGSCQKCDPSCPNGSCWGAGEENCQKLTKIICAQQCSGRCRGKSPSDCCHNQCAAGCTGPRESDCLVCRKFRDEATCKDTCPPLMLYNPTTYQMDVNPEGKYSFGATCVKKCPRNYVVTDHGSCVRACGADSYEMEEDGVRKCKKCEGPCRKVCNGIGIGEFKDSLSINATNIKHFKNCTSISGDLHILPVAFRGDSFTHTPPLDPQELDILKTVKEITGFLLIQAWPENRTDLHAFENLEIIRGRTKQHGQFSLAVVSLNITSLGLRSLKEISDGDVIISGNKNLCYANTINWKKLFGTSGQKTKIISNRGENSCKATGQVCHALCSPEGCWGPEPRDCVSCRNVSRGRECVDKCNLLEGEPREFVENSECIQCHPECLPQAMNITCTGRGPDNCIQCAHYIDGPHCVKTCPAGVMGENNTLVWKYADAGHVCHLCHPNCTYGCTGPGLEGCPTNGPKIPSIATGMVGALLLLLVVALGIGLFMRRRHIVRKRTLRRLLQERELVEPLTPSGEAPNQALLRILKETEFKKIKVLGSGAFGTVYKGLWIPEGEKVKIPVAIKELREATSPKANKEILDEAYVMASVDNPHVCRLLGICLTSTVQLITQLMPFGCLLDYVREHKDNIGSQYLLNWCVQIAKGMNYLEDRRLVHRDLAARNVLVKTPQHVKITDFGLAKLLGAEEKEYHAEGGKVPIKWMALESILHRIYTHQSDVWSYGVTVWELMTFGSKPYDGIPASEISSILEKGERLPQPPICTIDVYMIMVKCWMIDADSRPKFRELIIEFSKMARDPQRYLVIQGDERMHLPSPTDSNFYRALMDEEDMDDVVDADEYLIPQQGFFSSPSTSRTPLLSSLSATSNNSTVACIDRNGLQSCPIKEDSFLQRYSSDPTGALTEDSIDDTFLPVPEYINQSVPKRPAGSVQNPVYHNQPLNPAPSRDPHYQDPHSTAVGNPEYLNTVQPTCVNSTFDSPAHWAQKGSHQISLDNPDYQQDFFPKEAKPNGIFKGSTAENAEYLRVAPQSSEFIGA
# Chain of Epidermal growth factor receptor (Homo sapiens, UniProt P00533) (P00533 whole entry): as the sequence (P00533 whole entry, looked up, stated change not applied) above
# Chain of Epidermal growth factor receptor (Homo sapiens, UniProt P00533, EX19DEL/T790M) (P00533 whole entry, looked up, stated change not applied): as above
pIC50 [1],logD [3],pIC50 [4],pIC50 [5],"microsomal CLint at […], 1 µM [6] [µL/min/mg]",Papp [7] [×10⁻⁶ cm/s],SMILES,Ratio IC50 [2]
8.40,2.6,7.80,5.84,30,,C=CC(=O)N[C@@H]1CN(c2nc(Nc3cn(C)nc3C)c3ncn(C(C)C)c3n2)C[C@H]1F,56
,,,,,1.9,CC(C)C(CO)Nc1nc(Nc2ccc(N3CCNCC3)cc2)c2ncn(C(C)C)c2n1 (racemic),
